From patent US3974268A, “Bone-seeking technetium-99m imidodiphosphonate complex” (priority 1975, dated 1976)

Assay: Organ distribution of 99mTc-IDP in rabbits with 85Sr administered simultaneously (Table 1)
Format: in vivo, New Zealand adult albino rabbits
Settings: for % Dose/1% Body Weight, AVG BONE: mean of femur, tibia, spine, pelvis, 6 rabbits
Procedure: The organ distribution of the ^99m Tc imidodiphosphonate (IDP) was studied after I.V. injection of 50-200 μCi containing 0.1-0.2 mg of IDP per animal in New Zealand adult albino rabbits weighing 3.5-5 kg and compared with 10-20 μCi of ^85 Sr administered simultaneously as a biological standard. The methods of tissue assay used were those described in the Subramanian et al. references, supra. These animals were sacrificed at various time intervals from 15 min. to 24 hrs. after injection. […] A whole body image of the dog was obtained in the right lateral projection 4 hours after intravenous injection of 5 mCi of ^99m Tc-IDP using the Ohio Nuclear Model 100 area scan camera fitted with a 140 kev high sensitivity parallel hole collimator, with the data density setting of 200.
Table 1 contains biological distribution data of ^99m Tc-IDP in rabbits with ^85 Sr used simultaneously. The numbers shown in parenthesis after the time of study is the number of animals used per time interval. The values for each organ shown are the averages for each group of animals. The bone concentration shown as % dose / 1% body weight is the mean value of individual average of concentrations in four types of bone; the femur, tibia, spine and pelvis. An overall mean concentration of the four types of bone was calculated for each animal and then the average of these mean values were determined. Similarly the mean values for bone/organ ratios were calculated for each group.
In order to compensate for biologic variation, bone agents are best studied by comparing the quantitative uptake of the new compound with simultaneously administered ^85 Sr as a means of normalization. In comparing several ^99m Tc labeled agents between each other one should not only compare the whole organ uptake of individual compounds but also the ratios of their concentrations with ^85 Sr, especially so in comparing bone uptakes. Due to regional variation in bone uptake with the skeleton it is difficult to correctly estimate whole body bone uptake quantitatively. Nevertheless, the data for single whole bones (femur and tibia) is useful. […] This concentration change over serial time intervals may be due to the metabolic breakdown of the compound at the bone mineral surface with the ^99m Tc complex being more labile, while we known the biological half life of ^85 Sr is prolonged. Even at the later time intervals than 2 hours, ^99m Tc-IDP concentration in bone is at least 20-25% higher than the other Tc complexes (Table 2). The soft tissue concentrations of all these complexes are lower, especially that of the muscle, than ^85 Sr. The liver concentration is somewhat higher than ^85 Sr for some ^99m Tc complexes. This should not be a problem because the total liver concentration is relatively low.

[1] = 15 min after I.V. injection, mean of 6 rabbits
[2] = 1 hour after I.V. injection, mean of 6 rabbits
[3] = 2 hours after I.V. injection, mean of 9 rabbits

**Q.** With `[85Sr]` [85Sr] as the compound, how does the “% Dose in Whole Organ, BLOOD” value [1] read?
**A.** Its value is 16.1 % Dose.

**Q.** And the “% Dose in Whole Organ, KIDNEY” value [1]?
**A.** Its value is 1.27 % Dose.

**Q.** What about the “% Dose in Whole Organ, LIVER” value [1] of the same compound?
**A.** The value was 2.13 % Dose.

**Q.** What about the “% Dose in Whole Organ, MARROW” value [1] of the same compound?
**A.** The value was 0.903 % Dose.

**Q.** What about the “% Dose in Whole Organ, MUSCLE” value [1] of the same compound?
**A.** Its value is 15.6 % Dose.

**Q.** And the “% Dose in Whole Organ, URINE” value [1]?
**A.** Its value is 4.94 % Dose.

**Q.** And the “% Dose in Whole Organ, WHOLE FEMUR” value [1]?
**A.** Its value is 0.741 % Dose.

**Q.** And the “% Dose in Whole Organ, WHOLE TIBIA” value [1]?
**A.** The value was 0.540 % Dose.

**Q.** What about the “% Dose/1% Body Weight, BLOOD” value [1] of the same compound?
**A.** The value was 2.29 % Dose/1% Body Weight.

**Q.** What about the “% Dose/1% Body Weight, FEMUR” value [1] of the same compound?
**A.** The value was 3.41 % Dose/1% Body Weight.

**Q.** And the “% Dose/1% Body Weight, KIDNEY” value [1]?
**A.** Its value is 2.68 % Dose/1% Body Weight.

**Q.** And the “% Dose/1% Body Weight, LG INT” value [1]?
**A.** The value was 1.79 % Dose/1% Body Weight.

**Q.** And the “% Dose/1% Body Weight, LIVER” value [1]?
**A.** Its value is 0.692 % Dose/1% Body Weight.

**Q.** And the “% Dose/1% Body Weight, MARROW” value [1]?
**A.** Its value is 0.410 % Dose/1% Body Weight.

**Q.** What about the “% Dose/1% Body Weight, MUSCLE” value [1] of the same compound?
**A.** The value was 0.363 % Dose/1% Body Weight.

**Q.** What about the “% Dose/1% Body Weight, PELVIS” value [1] of the same compound?
**A.** The value was 5.06 % Dose/1% Body Weight.

**Q.** What about the “% Dose/1% Body Weight, SM INT” value [1] of the same compound?
**A.** Its value is 1.23 % Dose/1% Body Weight.

**Q.** And the “% Dose/1% Body Weight, SPINE” value [1]?
**A.** Its value is 3.76 % Dose/1% Body Weight.

**Q.** And the “% Dose/1% Body Weight, TIBIA” value [1]?
**A.** The value was 3.02 % Dose/1% Body Weight.

**Q.** What about the “RATIOS BONE/BLOOD” value [1] of the same compound?
**A.** The value was 1.71.

**Q.** And the “RATIOS BONE/MARROW” value [1]?
**A.** The value was 9.84.

**Q.** And the “RATIOS BONE/MUSCLE” value [1]?
**A.** The value was 10.6.

**Q.** And the “% Dose/1% Body Weight, AVG BONE” value (15 min after I.V. injection)?
**A.** Its value is 3.82 % Dose/1% Body Weight.

**Q.** And the “% Dose in Whole Organ, BLOOD” value [2]?
**A.** The value was 8.17 % Dose.

**Q.** What about the “% Dose in Whole Organ, KIDNEY” value [2] of the same compound?
**A.** The value was 0.938 % Dose.

**Q.** And the “% Dose in Whole Organ, LIVER” value [2]?
**A.** The value was 1.58 % Dose.

**Q.** What about the “% Dose in Whole Organ, MARROW” value [2] of the same compound?
**A.** The value was 0.817 % Dose.

**Q.** And the “% Dose in Whole Organ, MUSCLE” value [2]?
**A.** Its value is 9.55 % Dose.

**Q.** What about the “% Dose in Whole Organ, URINE” value [2] of the same compound?
**A.** The value was 8.96 % Dose.

**Q.** And the “% Dose in Whole Organ, WHOLE FEMUR” value [2]?
**A.** Its value is 1.27 % Dose.

**Q.** What about the “% Dose in Whole Organ, WHOLE TIBIA” value [2] of the same compound?
**A.** Its value is 1.03 % Dose.

**Q.** And the “% Dose/1% Body Weight, BLOOD” value [2]?
**A.** Its value is 1.17 % Dose/1% Body Weight.

**Q.** And the “% Dose/1% Body Weight, FEMUR” value [2]?
**A.** Its value is 5.23 % Dose/1% Body Weight.

**Q.** What about the “% Dose/1% Body Weight, KIDNEY” value [2] of the same compound?
**A.** Its value is 1.54 % Dose/1% Body Weight.

**Q.** What about the “% Dose/1% Body Weight, LG INT” value [2] of the same compound?
**A.** Its value is 0.961 % Dose/1% Body Weight.

**Q.** What about the “% Dose/1% Body Weight, LIVER” value [2] of the same compound?
**A.** Its value is 0.489 % Dose/1% Body Weight.

**Q.** What about the “% Dose/1% Body Weight, MARROW” value [2] of the same compound?
**A.** Its value is 0.382 % Dose/1% Body Weight.

**Q.** And the “% Dose/1% Body Weight, MUSCLE” value [2]?
**A.** The value was 0.222 % Dose/1% Body Weight.

**Q.** And the “% Dose/1% Body Weight, PELVIS” value [2]?
**A.** The value was 5.47 % Dose/1% Body Weight.

**Q.** What about the “% Dose/1% Body Weight, SM INT” value [2] of the same compound?
**A.** Its value is 0.654 % Dose/1% Body Weight.

**Q.** What about the “% Dose/1% Body Weight, SPINE” value [2] of the same compound?
**A.** Its value is 5.82 % Dose/1% Body Weight.

**Q.** And the “% Dose/1% Body Weight, TIBIA” value [2]?
**A.** The value was 4.67 % Dose/1% Body Weight.

**Q.** What about the “RATIOS BONE/BLOOD” value [2] of the same compound?
**A.** Its value is 4.53.

**Q.** And the “RATIOS BONE/MARROW” value [2]?
**A.** Its value is 13.9.

**Q.** And the “RATIOS BONE/MUSCLE” value [2]?
**A.** The value was 23.9.

**Q.** What about the “% Dose/1% Body Weight, AVG BONE” value (1 hour after I.V. injection) of the same compound?
**A.** Its value is 5.30 % Dose/1% Body Weight.

**Q.** What about the “% Dose in Whole Organ, BLOOD” value [3] of the same compound?
**A.** Its value is 5.19 % Dose.

**Q.** And the “% Dose in Whole Organ, KIDNEY” value [3]?
**A.** Its value is 0.638 % Dose.

**Q.** And the “% Dose in Whole Organ, LIVER” value [3]?
**A.** Its value is 0.947 % Dose.

**Q.** What about the “% Dose in Whole Organ, MARROW” value [3] of the same compound?
**A.** The value was 0.499 % Dose.

**Q.** What about the “% Dose in Whole Organ, MUSCLE” value [3] of the same compound?
**A.** The value was 7.96 % Dose.

**Q.** What about the “% Dose in Whole Organ, URINE” value [3] of the same compound?
**A.** Its value is 16.6 % Dose.

**Q.** What about the “% Dose in Whole Organ, WHOLE FEMUR” value [3] of the same compound?
**A.** The value was 1.67 % Dose.

**Q.** What about the “% Dose in Whole Organ, WHOLE TIBIA” value [3] of the same compound?
**A.** The value was 1.34 % Dose.

**Q.** What about the “% Dose/1% Body Weight, BLOOD” value [3] of the same compound?
**A.** Its value is 0.742 % Dose/1% Body Weight.

**Q.** What about the “% Dose/1% Body Weight, FEMUR” value [3] of the same compound?
**A.** The value was 6.84 % Dose/1% Body Weight.

**Q.** What about the “% Dose/1% Body Weight, KIDNEY” value [3] of the same compound?
**A.** The value was 1.14 % Dose/1% Body Weight.
